US7001611B2, “Compositions normalizing circadian rhythm” (Suntory Limited, priority 2000, dated 2006)
Entries after “also recorded” stand apart in the source; their conditions may differ.

Legend:
Wistar rats = assay: Circadian rhythm measuring method: amount of daily (spontaneous) movements of rats counted with an infrared sensor under a 12-hour light / 12-hour dark cycle; format: in vivo, rat; settings: for ratio of activity in the light period to the total amount of movements (averages): Example 2, vs control group, astaxanthin diet, melatonin water (about 1 mg/day) or both, FIG. 5; for enhancive effect on the circadian rhythm normalizing action of melatonin: Example 3
Source text: To search for a substance having the action of normalizing the circadian rhythm, the inventors of the present invention conducted studies on various substances with the use of a circadian rhythm measuring method, with the amount of spontaneous movement of rats as an indicator, in an environment controlled to have a 12-hour light period and a 12-hour dark period. As a result, the inventors have clarified that astaxanthin, which is one of carotenoids, and/or its ester has a circadian rhythm normalizing action. […] These findings led them to accomplish the present invention. The influence of astaxanthin on daily movements was investigated in rats. Rats have the habit of resting (sleeping) mainly in the light period, and acting in the dark period. The circadian rhythm of rats was investigated by measuring the amount of daily movements continuously, and examining changes over time in the amounts of movements in the light period and the dark period. Four-week-old male Wistar rats (purchased from Nippon […]) were preliminarily reared for one week, and subjected to experiments at the age of 5 weeks. The rats were randomly divided into two groups (5 to 6 rats/group), and one of the groups was used as a control diet (low tocopherol) group, while the other group was used as an astaxanthin diet group, each group receiving the designated diet for 4 weeks. The animals were reared in animal cages kept at room temperature of 23.5±1° C. and a humidity of 55±5%, and the feed and water were provided ad libitum. Astaxanthin used was astaxanthin extracted from […] purified (an oil containing 15% of astaxanthin as a free compound; a product of Itano Refrigerating Co.). The rats were individually reared in a box equipped with an infrared sensor, and the amount of movements was counted with the infrared sensor. That is, each time the animal passed the infrared sensor, the passage was taken as one count. The counts taken were accumulated, and expressed as the amount of movements (counts). Statistical treatment was performed using ANOVA and student t-test. A period of 1 week after start of rearing with the experimental diet was set as a tuning period in which the animal was tuned to a 12-hour dark period and a 12-hour light period. Then, from the 2nd week, the amount of daily movements was continuously measured for 3 weeks. The total amount of movements, and the ratio of movements in the light period to the total amount of movements (i.e., the amount of movements in the light period/the total amount of movements×100 (%)) were calculated every day. […] The averages of the ratio (%) of movements in the light period were compared in both groups (FIG. 3). […] Four-week-old male Wistar rats (purchased from Nippon […]) were preliminarily reared for one week, and subjected to experiments at the age of 5 weeks. The rats were randomly divided into two groups (10 to 11 rats/group), and the two groups were given a control diet (low tocopherol diet) and an astaxanthin diet (Table 1), respectively. Each group was further divided into two groups (5 to 6 rats/group), which received distilled water and melatonin water, respectively, for 4 weeks. The animals were reared in animal cages kept at room temperature of 23.5±1° C. and a humidity of 55±5%, and the feed and water were provided ad libitum. Melatonin was dissolved in water at a concentration of 0.5 mg/100 ml, and the solution was given ad lib, as drinking water. The intake of melatonin, calculated from the amount of water taken by rats, was about 1 mg/day. After start of rearing with the experimental diet, a tuning period of 1 week was provided. Then, the amount of movements of rats was measured as in Example 1 for 3 weeks to look into changes in the circadian rhythm. No differences were noted among the averages of the total amount of movements in the respective groups (FIG. 4). […]

[1] = tested on: lipid peroxides in the brain; settings: dose 1/100 the dose of α-tocopherol; Nishigaki et al. 1994; cited from earlier work
[2] = Yamashita 1992; cited from earlier work
[3] = Example 4, tocopherol-deficient basic feed, FIG. 9

SMILES	total amount of movements (day-to-day changes) (Wistar rats; Example 1, astaxanthin diet (0.3 g/kg of oil containing 15% astaxanthin) vs control low tocopherol diet, 3 weeks, FIG. 1)	average of the ratio (%) of movements in the light period (Wistar rats; Example 1, astaxanthin diet group vs control, FIG. 3)	ratio of movements in the light period to the total amount of movements (day-to-day changes) (Wistar rats; Example 1, astaxanthin diet vs control low tocopherol diet, 3 weeks, FIG. 2)	ratio of activity in the light period to the total amount of movements (averages) (Wistar rats)	enhancive effect on the circadian rhythm normalizing action of melatonin (Wistar rats; 0.0045% astaxanthin diet with melatonin water, FIG. 8)	total amount of movements (Wistar rats; Example 4, maximum dose of 1.5 g/kg diet, tocopherol-deficient basic feed, FIG. 10)	doses at which the decrease of the ratio of activity in the light period was significant (Wistar rats; [3])	minimum dose at which the ratio of activity in the light period decreased (Wistar rats; [3])	ratio of activity in the light period to the total amount of movements (dose dependency) (Wistar rats; Example 4, tocopherol-deficient basic feed, astaxanthin diets 0.15, 0.3, 0.6, 1.5 g/kg, FIG. 9)	increases in lipid peroxides in the brain caused by irradiation with 60Co [1]	antioxidant action compared with α-tocopherol [2]	enhancive effect on the circadian rhythm normalizing action of melatonin (Wistar rats; 0.001% tocopherol diet with melatonin water, FIG. 6)	enhancive effect on the circadian rhythm normalizing action of melatonin (Wistar rats; 0.005% tocopherol diet with melatonin water, FIG. 7)	enhancive effect on the circadian rhythm normalizing action of melatonin (Wistar rats; 0.005% tocopherol diet with melatonin water, FIG. 7, listed as tocopherol)
CC1=C(/C=C/C(C)=C/C=C/C(C)=C/C=C/C=C(C)/C=C/C=C(C)/C=C/C2=C(C)C(=O)[C@@H](O)CC2(C)C)C(C)(C)C[C@H](O)C1=O [Astaxanthin, astaxanthin]	did not affect the total amount of movements	significant decrease in the ratio of movements in the light period	lowered the ratio of movements in the light period	tendency toward a decrease in the ratio of activity in the light period	enhance the circadian rhythm normalizing action of melatonin significantly; also recorded: more potent effect of enhancing the circadian rhythm normalizing action of melatonin than does α-tocopherol	tended to increase	≥ 0.3 g/kg diet	0.15 g/kg diet	decreased in an astaxanthin concentration-dependent manner	can suppress increases in lipid peroxides in the brain	more potent than that of α-tocopherol			
Cc1c(C)c2c(c(C)c1O)CC[C@@](C)(CCC[C@H](C)CCC[C@H](C)CCCC(C)C)O2 [α-tocopherol, reference compound]												no effect of enhancing the circadian rhythm normalizing action of melatonin	no effect of enhancing the circadian rhythm normalizing action of melatonin	slight enhancive effect
COc1ccc2[nH]cc(CCNC(C)=O)c2c1 [melatonin, reference compound]				tendency toward a decrease in the ratio of activity in the light period										
